In patent US20050008851A1, “Biosensor” (FUJI PHOTO FILM CO., LTD., priority 2003, published 2005):

conditions: water at 20° C.

SMILES	solubility in water [% by weight]
C=C(C)C(=O)OCCCC [butyl methacrylate]	0.03
C=C(C)C(=O)OC [methyl methacrylate]	1.35
C=Cc1ccccc1 [styrene]	0.03
